Assay results published in PMC4434089 (Biotechnology, Biotechnological Equipment, 2014).
Values joined by “and” are separate entries in the source; they are usually repeats but may differ in a detail not shown here. Equal values may be shown once. Marks after values point to notes of the source that are not given here.

Columns and labels:
amylin [1] = tested on: amylin; parameters: method as in 2 sources, ref 23 = [23]; PMID 9878384; doi:10.1006/jmbi.1998.2299; Goldsbury C Kistler J Aebi U Arvinte T Cooper GJS J Mol Biol. 1999 285 33 39 9878384 10.1006/jmbi.1998.2299 ||| ref 26 = [26]; PMID 9216085; doi:10.1006/jsbi.1997.3858; Goldsbury CS Cooper GJS Goldie KN Muller SA Saafi EL Gruijters WTM Misur MP J Struct Biol. 1997 119 17 27 http://dx.doi.org/10.1006/jsbi.1997.3858 9216085 10.1006/jsbi.1997.3858; conditions: cited from earlier work
amylin [2] = assay: NTA of amylin aggregation, alone or with amylin derivatives; type: biochemical, human; conditions: for Concentration of aggregates 100–150 nm, 10 min / Concentration of aggregates 200–300 nm, 10 min / Concentration of aggregates 150–200 nm, 10 min / Concentration of aggregates 100–150 nm, 24 h / Concentration of aggregates 200–300 nm, 24 h / Concentration of aggregates 150–200 nm, 24 h: amylin 50 μmol L^−1 alone (A) or with 250 μmol L^−1 derivative, pH 7.4, duplicate; for Concentration of aggregates 100–150 nm, 10 min: 10 mmol L^−1 sodium phosphate, 50 mmol L^−1 NaCl; for Concentration of aggregates 100–150 nm, 10 min / Concentration of aggregates 150–200 nm, 10 min: p < 0.05 less than A: n1, n5, m5; for Concentration of aggregates 200–300 nm, 10 min: p < 0.05 less than A: n1, n3, n5, m1, m2, m3, m4, m5; for Concentration of aggregates 100–150 nm, 24 h: p < 0.05 less than A: n1, n2, m5, significantly more: m2; for Concentration of aggregates 200–300 nm, 24 h: p < 0.05 less than A: n1, n2, n3, n4, n5, m5; for Concentration of aggregates 150–200 nm, 24 h: p < 0.05 less than A: n1, n2, n5, m5; for implied effect on fibrillogenesis of amylin: NTA compared with previously published reports; for number of 200–300 nm aggregates at 24 h vs amylin only: amylin:derivative 50:250 μmol L^−1, p < 0.05; for effect on amylin aggregation over 24 h: all size ranges, amylin:derivative 50:250 μmol L^−1, vs amylin only; for concentration of 200–300 nm aggregates, with derivative: similar to or more than amylin only
Experimental: NTA measurements were performed with a NanoSight LM20 instrument (NanoSight, United Kingdom) equipped with a 640 nm laser and a temperature controlled sample chamber. […] The sample temperature was maintained at 37 °C for the entire duration of the experiment. These experimental conditions were similar to that used for a previously reported cytotoxicity experiment,[73] thus allowing correlation of results obtained from the two techniques. […] Once again, samples were maintained at 37 °C and 60 s video footage were recorded every 10 min for the first hour and then at 24 h. All videos were captured with the single shutter and gain modes. Analysis was performed using NanoSight NTA version 2.2 software with a viscosity setting of 0.70.

[3] = tested on: amylin-mediated cytotoxicity; parameters: method as in PMID 20093026; conditions: cited from earlier work
full length amylin = tested on: full length amylin; parameters: method as in 2 sources, one per row (each row's own in cited_ref): ref 58 = [58]; PMID 14565847; doi:10.1042/BJ20030852; Jaikaran E Nilsson MR Clark A Biochem J. 2004 377 709 716 14565847 10.1042/BJ20030852 PMC1223903 ||| ref 68, 93 = [68]; PMID 12054816; doi:10.1016/S0022-2836(02)00164-X; Scrocchi LA Chen Y Waschuk S Wang F Cheung S Darabie AA McLaurin J Fraser PE J Mol Biol. 2002 318 697 706 12054816 10.1016/S0022-2836(02)00164-X || [93]; PMID 12648568; doi:10.1016/s1047-8477(02)00630-5; Scrocchi LA Ha K Chen Y Wu L Wang F Fraser PE J Struct Biol. 2003 141 218 227 http://dx.doi.org/10.1016/s1047-8477(02)00630-5 12648568 10.1016/s1047-8477(02)00630-5; conditions: cited from earlier work

Row | Substance | Concentration of aggregates 100–150 nm, 10 min (amylin [2]; NTA, 10 min, 37 °C) | Concentration of aggregates 200–300 nm, 10 min (amylin [2]; NTA, 10 min, 37 °C) | Concentration of aggregates 150–200 nm, 10 min (amylin [2]; NTA, 10 min, 37 °C) | Concentration of aggregates 100–150 nm, 24 h (amylin [2]; NTA, 37 °C) | Concentration of aggregates 200–300 nm, 24 h (amylin [2]; NTA, 37 °C) | Concentration of aggregates 150–200 nm, 24 h (amylin [2]; NTA, 37 °C) | reduction of amylin-mediated cytotoxicity [3] | implied effect on fibrillogenesis of amylin (amylin [2]) | number of 200–300 nm aggregates at 24 h vs amylin only (amylin [2]; NTA) | effect on amylin aggregation over 24 h (amylin [2]; NTA) | inhibitory effect on amylin-mediated cytotoxicity [3] | concentration of 200–300 nm aggregates, with derivative (amylin [2]; NTA) | also measured
1 | Amylin: chemically synthesized full-length human amylin, 37 amino acid long peptide (KCNTATCATQRLANFLVHSSNNFGAILSSTNVGSNTY; Islet amyloid polypeptide; UniProt P10997 34-70, looked up) [reference compound] | 5.7 ×10^7 aggregates/mL | 7.0 ×10^7 aggregates/mL | 5.4 ×10^7 aggregates/mL | 2.9 ×10^7 aggregates/mL | 2.7 ×10^7 aggregates/mL | 2.5 ×10^7 aggregates/mL | – | – | – | – | – | – | amylin growth rate (AFM) (amylin [1]; AFM): 1.1 nm/min; mass-per-length (MPL) of amylin protofibril (amylin [1]; STEM): 10 kDa nm^−1; approximate rate of amylin aggregation (amylin [1]; estimated from literature AFM and STEM values): ~11 kDa min^−1; critical concentration of 200–300 nm aggregates for amylin-mediated cytotoxicity (amylin [2]; NTA correlated to cytotoxicity data, suggested): more than 2.1 × 10^7 aggregates per millilitre; size of toxic species of amylin (amylin [2]; NTA correlated to previously published cytotoxicity (ref 73), tentatively suggested): 200–300 nm; predominant aggregate size (amylin [2]; NTA, amylin 50 μmol L^−1 alone, 37 °C, pH 7.4, over 24 h): 150–200 nm and 200–300 nm; completion of aggregation (amylin [2]; NTA, amylin alone): complete aggregation of amylin occurs within the first hour; concentration of 100–150, […]–200 and 200–300 nm aggregates after the first hour (amylin [2]; NTA, amylin alone, stable up until 24 h): 2.5 × 10^7 – 3.0 × 10^7 aggregates per millilitre; total concentration of aggregates (amylin [2]; initial NTA, 50 μmol L^−1 amylin): 3.12 × 10^8 aggregates per millilitre
2 | FLVHSS [n3] | 2.0 ×10^7 aggregates/mL | 1.4* ×10^7 aggregates/mL | 1.2 ×10^7 aggregates/mL | 3.4 ×10^7 aggregates/mL | 1.9* ×10^7 aggregates/mL | 2.1 ×10^7 aggregates/mL | more than 40% | increase fibrillogenesis of amylin to an aggregate that is larger than 1000 nm | significantly lower than in samples containing amylin only | small amount of aggregates of all size ranges which increases only marginally over 24 h | – | – | fibril formation of full length amylin in presence of derivative (full length amylin): fibril formation of full length amylin was enhanced
3 | FLVHSS* [m3] | 2.1 ×10^7 aggregates/mL | 2.1* ×10^7 aggregates/mL | 1.6 ×10^7 aggregates/mL | 5.9 ×10^7 aggregates/mL | 4.7 ×10^7 aggregates/mL | 3.9 ×10^7 aggregates/mL | – | – | – | – | not to have an inhibitory effect on amylin-mediated cytotoxicity | ≥ 2.7 × 10^7 aggregates per millilitre | –
4 | NFGAIL* [m4] | 2.7 ×10^7 aggregates/mL | 1.6* ×10^7 aggregates/mL | 1.5 ×10^7 aggregates/mL | 4.1 ×10^7 aggregates/mL | 3.3 ×10^7 aggregates/mL | 2.8 ×10^7 aggregates/mL | – | – | – | – | not to have an inhibitory effect on amylin-mediated cytotoxicity | ≥ 2.7 × 10^7 aggregates per millilitre | –
5 | NTAT [n1] | 0.5* ×10^7 aggregates/mL | 0.4* ×10^7 aggregates/mL | 0.5* ×10^7 aggregates/mL | 0.9* ×10^7 aggregates/mL | 0.8* ×10^7 aggregates/mL | 1.1* ×10^7 aggregates/mL | more than 40% | inhibit fibrillogenesis | significantly lower than in samples containing amylin only | significantly less than that observed in samples containing disaggregated amylin only | – | – | –
6 | STNVGS [n5] | 0.1* ×10^7 aggregates/mL | 0.5* ×10^7 aggregates/mL | 0.1* ×10^7 aggregates/mL | 2.4 ×10^7 aggregates/mL | 2.0* ×10^7 aggregates/mL | 1.4* ×10^7 aggregates/mL | more than 40% | increase fibrillogenesis of amylin to an aggregate that is larger than 1000 nm | significantly lower than in samples containing amylin only | small amount of aggregates of all size ranges which increases only marginally over 24 h | – | – | –
7 | STNVGS* [m5] | 0.9* ×10^7 aggregates/mL | 0.8* ×10^7 aggregates/mL | 0.8* ×10^7 aggregates/mL | 1.6* ×10^7 aggregates/mL | 1.4* ×10^7 aggregates/mL | 1.3* ×10^7 aggregates/mL | more than 40% | inhibit fibrillogenesis | significantly lower than in samples containing amylin only | significantly fewer amylin aggregates of all size ranges | – | – | –
8 | TQRLA [n2] | 4.3 ×10^7 aggregates/mL | 3.4 ×10^7 aggregates/mL | 2.5 ×10^7 aggregates/mL | 1.5* ×10^7 aggregates/mL | 2.1* ×10^7 aggregates/mL | 1.5* ×10^7 aggregates/mL | more than 40% | increase fibrillogenesis of amylin to an aggregate that is larger than 1000 nm | significantly lower than in samples containing amylin only | – | – | – | concentrations of 100–150, […]–200 and 200–300 nm aggregates at 10 min vs amylin only (amylin [2]; NTA, 10 min, amylin:derivative 50:250 μmol L^−1, unpaired t-test): not significantly different
9 | TQRLA* [m2] | 3.9 ×10^7 aggregates/mL | 2.6* ×10^7 aggregates/mL | 2.4 ×10^7 aggregates/mL | 3.6** ×10^7 aggregates/mL | 4.6 ×10^7 aggregates/mL | 7.9 ×10^7 aggregates/mL | – | – | – | – | not to have an inhibitory effect on amylin-mediated cytotoxicity | ≥ 2.7 × 10^7 aggregates per millilitre | –
